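A five-concentration, 48-hour dose response in 96-well plates underlies each endpoint, interpolated linearly between surrounding concentrations. GI50 = concentration required for 50% inhibition of growth. Definition used: TGI = concentration required for complete inhibition of growth.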
Tests used:
Assay in all cases: DTP human tumour cell line panel, 48 h
[1] = tested on: NCI-H226 lung
[2] = tested on: NCI-H23 lung
[3] = tested on: NCI-H460 lung
[4] = tested on: NCI-H522 lung
[5] = tested on: OVCAR-3 ovarian
[6] = tested on: OVCAR-4 ovarian
[7] = tested on: OVCAR-5 ovarian
[8] = tested on: OVCAR-8 ovarian
[9] = tested on: PC-3 prostate
[10] = tested on: RPMI-8226 leukemia
[11] = tested on: RXF 393 renal
[12] = tested on: SF-268 CNS
[13] = tested on: SF-295 CNS
[14] = tested on: SF-539 CNS
[15] = tested on: SK-MEL-2 melanoma
[16] = tested on: SK-MEL-28 melanoma
[17] = tested on: SK-MEL-5 melanoma
[18] = tested on: SK-OV-3 ovarian
[19] = tested on: SN12C renal
[20] = tested on: SNB-19 CNS
[21] = tested on: SNB-75 CNS
[22] = tested on: SR leukemia
[23] = tested on: SW-620 colon
[24] = tested on: T-47D breast
[25] = tested on: TK-10 renal
[26] = tested on: U251 CNS
[27] = tested on: UACC-257 melanoma
[28] = tested on: UACC-62 melanoma
[29] = tested on: UO-31 renal

In the case of `C=CC[Se]C(=O)c1cncc(C(=O)[Se]CC=C)c1`, the GI50 [1] is reported as 2880 nM, the TGI [1] is reported as 10500 nM and the GI50 [2] is reported as 1390 nM. For the same compound, the TGI [2] was 2960 nM, the GI50 [3] was 382 nM and the TGI [3] was 3070 nM. The GI50 [4] was 1680 nM, the TGI [4] was 3100 nM and the GI50 [5] was 1890 nM. The TGI [5] was 3400 nM, the GI50 [6] was 1990 nM and the TGI [6] was 3850 nM. The GI50 [7] was 1550 nM, the TGI [7] was 3160 nM and the GI50 [8] was 1510 nM. For the same compound, the TGI [8] was 2940 nM, the GI50 [9] was 431 nM and the TGI [9] was 1530 nM. The GI50 [10] was 2450 nM, the TGI [10] was 6380 nM and the GI50 [11] was 2170 nM. The TGI [11] was 5180 nM, the GI50 [12] was 2230 nM and the TGI [12] was 6820 nM. The GI50 [13] was 261 nM, the TGI [13] was 756 nM and the GI50 [14] was 1360 nM. The TGI [14] was 2650 nM, the GI50 [15] was 1920 nM and the TGI [15] was 3790 nM. It also gave a GI50 [16] of 1710 nM, a TGI [16] of 3240 nM and a GI50 [17] of 1710 nM. For the same compound, the TGI [17] was 3690 nM, the GI50 [18] was 1430 nM and the TGI [18] was 3030 nM. For the same compound, the GI50 [19] was 628 nM, the TGI [19] was 1920 nM and the GI50 [20] was 386 nM. The TGI [20] was 1500 nM, the GI50 [21] was 1030 nM and the TGI [21] was 2440 nM. The GI50 [22] was 3020 nM, the TGI [22] was 27100 nM and the GI50 [23] was 1940 nM. The TGI [23] was 3680 nM, the GI50 [24] was 2140 nM and the TGI [24] was 5140 nM. It also gave a GI50 [25] of 1710 nM, a TGI [25] of 3140 nM and a GI50 [26] of 782 nM. The TGI [26] was 2220 nM, the GI50 [27] was 1790 nM and the TGI [27] was 3350 nM. For the same compound, the GI50 [28] was 1680 nM, the TGI [28] was 3720 nM and the GI50 [29] was 1650 nM. The TGI [29] was 3030 nM.

— PubChem BioAssay (NCI)
